This note sets out measurements from patent publication US9199977B2, “Crystal having crystal habits and pharmaceutical composition obtained by processing the crystal” (POLA PHARMA INC., priority 2012, dated 2015).

Data set [1] can be described thus: Elution or dissolution test of luliconazole crystals in anhydrous ethanol. Format: physicochemical. The conditions noted are these: 1 g luliconazole in 500 mL anhydrous ethanol, constant stirring, room temperature. The procedure:
(§1) Ethanol containing 10% water was added to luliconazole, followed by being heated, stirred, and filtrated while applying the heat. A filtrate was quickly cooled with an ice bath and the wall surface was scraped with a spatula to perform the recrystallization. Crystals were collected by filtration, followed by being dried by using phosphorus pentaoxide to obtain Crystal 1 of the present invention. In distinct Comparative Example, the same process or treatment was performed while replacing the solvent with a mixture of ethyl acetate/n-hexane (5:1) to obtain Crystal of Comparative Example. The elution or dissolution test was performed for the two types of the crystals to investigate the elution or dissolution profile. After confirming the dissolution of all crystals, the Z isomer and the SE isomer, which were the isomers generated or formed in the solution, were analyzed and quantitatively measured by HPLC assay.
(§2) In the elution or dissolution test, 500 mL of anhydrous ethanol was used as the solvent, and 1 g of luliconazole was dissolved under constant stirring at room temperature. The time, which was required for the dissolution, was simultaneously measured. According to Table 1, it is appreciated that the time required for the dissolution is short for Crystal 1, and thus the generation of the Z isomer and the SE isomer as the isomers is suppressed in the dissolving step.

A short description of data set [2]: HPLC quantification of Z and SE isomers generated in the solution after dissolution. In kind it is physicochemical. The conditions noted are these: in ethanol solution after dissolution of all crystals. As for the experimental part: as §1, §2
The condition for HPLC was as follows. Column: CHIRALCEL OD-RH 4.6×150 mm, column temperature: 35° C., mobile phase: mixture of methanol/2% aqueous solution of potassium hexafluorophosphate (85:15, v/v), flow rate: 0.6 mL/min., detection: 295 nm).

The structures appear in SMILES notation.

Turning to `N#C/C(=C1/SC[C@@H](c2ccc(Cl)cc2Cl)S1)n1ccnc1` [Crystal of Comp. Ex., luliconazole], the “Time required until dissolution” value in data set [1] is 300 min. Besides, in data set [2], the “Amount of generation of SE isomer” value was determined as 0.09% and the “Amount of generation of Z isomer” value is 0.13%.
Regarding `N#C/C(=C1/SC[C@@H](c2ccc(Cl)cc2Cl)S1)n1ccnc1` [Crystal 1, luliconazole], in data set [1], the “Time required until dissolution” value was determined as 200 min. In data set [2], the “Amount of generation of SE isomer” value is 0.06% and the “Amount of generation of Z isomer” value worked out at 0.06%.
